Publication PMC4752462 (PLoS ONE, 2016)
Several values for one entry are separate records, joined by “and”; a condition that tells them apart may be missing. Identical values can stand only once.

Key:
[1] = plasma pharmacokinetics; cited from earlier work
human liver microsomes [2] = test: Substrate (saturation) kinetics of EVG metabolism in human liver microsomes; assay type: in vitro ADME
Experimental: (§1) The reaction was carried out using human liver microsomes in 0.1 M potassium phosphate buffer at pH 7.4 as described previously. […] After pre-incubation at 37°C for 10 minutes, 3 mM final concentration of NADPH was added to initiate the metabolic reaction. After 7 minutes incubation at 37°C the reactions were terminated by adding 1:3 volumes of cold acetonitrile. For the time kinetic study, the reaction was terminated at various time points (0.0, 2.5, 5, 10, 15, 20, 30, and 60 minutes). […] The Prior to LCMS/MS analysis the analyte was extracted from the microsomes by a protein precipitation method as described previously. The concentrations of all the drugs were quantified using Ab Sciex Analyst® software. Microsomal kinetic data were analyzed using Michaelis-Menten and exponential decay equations. CYP3A4 inhibition data were evaluated by fitting the values to dose-response inhibition and calculated IC50 values were reported. All graphs were plotted and two-tailed t-tests were performed wherever appropriate using GraphPad Prism 5.01 (GraphPad, San Diego, CA). Significant differences between more than two groups analyzed with one-way ANOVA followed by Dunnett's multiple comparison tests using IBM […] version 20.

[3] = as above; assay type: in vitro ADME; conditions: human
Experimental: as §1

CYP3A = system: CYP3A; parameters: method as in PMID 21348537; conditions: read-out: IC50 for CYP3A inhibition; cited from earlier work
CYP3A4 = conditions: based on the EVG metabolic activity; cited from earlier work
human liver microsomes [4] = test: in vitro; assay type: in vitro ADME; conditions: for EVG remaining: human, microsomes, 4 μM, pH 7.4
Experimental: as §1, with “20. […] To study the influence of alcohol consumption on EVG metabolism, 20 mM ethanol (physiological concentration in moderate drinker) was used to treat human liver microsomes. […] EVG degradation/metabolism at 4 μM followed a pseudo-first-order kinetic. Therefore, we fit the data to an exponential one phase decay equation to determine the apparent half-life (t1/2) and rate constant K.” for “20.”

in vitro = in vitro ADME, human; conditions: human, microsomes
Experimental: as §1, with “20. […] To study the influence of alcohol consumption on EVG metabolism, 20 mM ethanol (physiological concentration in moderate drinker) was used to treat human liver microsomes. […] EVG degradation/metabolism at 4 μM followed a pseudo-first-order kinetic. Therefore, we fit the data to an exponential one phase decay equation to determine the apparent half-life (t1/2) and rate constant K.” for “20.”

[5] = three values per group used for statistics

SMILES: COc1cc2c(cc1Cc1cccc(Cl)c1F)c(=O)c(C(=O)O)cn2[C@H](CO)C(C)C [EVG, Elvitegravir]
- plasma half-life [1]: 120 to 180 min
- enzyme activity (Fig 4 data) (human liver microsomes [2]; EVG 4): 3.7 μmol/min/mg protein
- enzyme activity (Fig 4 data) (human liver microsomes [2]; EVG 8): 7.7 μmol/min/mg protein
- enzyme activity (Fig 4 data) (human liver microsomes [2]; EVG 20): 19.5 μmol/min/mg protein
- enzyme activity (Fig 4 data) (human liver microsomes [2]; EVG 40): 38.6 μmol/min/mg protein
- enzyme activity (Fig 4 data) (human liver microsomes [2]; EVG 60): 55.9 μmol/min/mg protein
- enzyme activity (Fig 4 data) (human liver microsomes [2]; EVG 80): 68.9 μmol/min/mg protein
- enzyme activity (Fig 4 data) (human liver microsomes [2]; EVG 100): 74.7 μmol/min/mg protein
- enzyme activity (Fig 4 data) (human liver microsomes [2]; EVG 120): 71.9 μmol/min/mg protein
- enzyme activity (Fig 4 data) (human liver microsomes [2]; EVG 160): 70.9 μmol/min/mg protein
- enzyme activity (Fig 4 data) (human liver microsomes [2]; EVG 200): 84.3 μmol/min/mg protein
- Vmax (human liver microsomes [2]; EVG alone): 162 ± 16 μmol/min/mg protein
- Vmax (human liver microsomes [2]; in the presence of ethanol): 221 ± 18 μmol/min/mg protein
- Km (human liver microsomes [2]; [5]): 65.2 µM and 68.7 µM
- Vmax (human liver microsomes [2]; [5]): 162.1 and 157.8 and 158.3
- Vmax (human liver microsomes [2]; when COBI is present): 308 ± 45 μmol/min/mg protein
- Km at 7 min ([3]; pH 7.4, EVG 4-200 μM, COBI at same ratio, EtOH 20 mM): 68 ± 17 µM
- Km at 7 min ([3]; pH 7.4, in the presence of ethanol): 115 ± 18 µM
- Km at 7 min ([3]; pH 7.4, three values per group used for statistics): 68.3 µM
- Km at 7 min ([3]; pH 7.4, when COBI is present): 189 ± 46 µM
- IC50 (CYP3A): 63 µM
- Km (CYP3A4): 21.5 µM
- Rate Constant 'K' (human liver microsomes [4]; With Ethanol, three values per group): 0.05
- EVG remaining (human liver microsomes [4]; 0 h): 100 % of control
- EVG remaining (human liver microsomes [4]; 2.5 min): 96.6 % of control
- EVG remaining (human liver microsomes [4]; 5 min): 93.5 % of control
- EVG remaining (human liver microsomes [4]; 10 min): 77.8 % of control
- EVG remaining (human liver microsomes [4]; 0.25 h): 63.6 % of control
- EVG remaining (human liver microsomes [4]; 20 min): 45.2 % of control
- EVG remaining (human liver microsomes [4]; 0.5 h): 30.4 % of control
- EVG remaining (human liver microsomes [4]; 1 h): 14.2 % of control
- half-life at 4 μM (in vitro; pH 7.4, Half-life): 12.1 min
- half-life at 4 μM (in vitro; pH 7.4, Half-life (minutes)): 17 ± 1 min
